Assay results: publication PMC12676312, “Evaluation of Antiviral Activity of N‑Phenyl-2-Phenoxyacetamides Derived from Carvacrol against Mayaro Virus: In Vitro Analyses and In Silico Insights” (ACS Omega, 2025)

Tests used:
Vero cells = test system: Vero cells; parameters: method as in previous study of our group; settings: ref previous study of our group; cited from earlier work
Mayaro virus (MAYV) [1] = type: cell-based, Mayaro virus (ATCC VR 66, strain TR 4675); settings: Vero cells infected with MAYV (MOI 1) pre-treated 1 h with compound at its CC50-based concentration or 500 μM; 48 h; MTT; infected control 0%, uninfected 100%
Method: Vero cells (ATCC CCL-81) were used in all in vitro assays. Cells were cultured in DMEM medium supplemented with 2% fetal bovine serum (FBS), penicillin, and streptomycin, and incubated at a constant temperature of 37 °C under a controlled atmosphere of 5% CO2. Mayaro virus (ATCC VR 66, strain TR 4675) was initially propagated in C6/36 cells cultured in L-15 medium supplemented with 2% FBS, incubated at 28 °C. For viral titer determination, Vero cells (10^5 cells/well) were seeded in 24-well plates and cultured for approximately 24 h to achieve 80% confluence. Subsequently, the culture medium was replaced with 10-fold serial dilutions of the viral aliquot. The plate was maintained under constant agitation for 1 h to facilitate viral adsorption. The medium was then replaced with a semisolid medium (incomplete DMEM and 1% carboxymethylcellulose at a 2:1 ratio). Plates were incubated for 48 h under the aforementioned conditions, and cytopathic effects were monitored. After this period, cells were fixed with 10% formaldehyde and stained with 5% crystal violet solution for plaque counting. The mean number of plaques was used to determine the number of plaque-forming units (PFU), and the viral titer was expressed as PFU/mL.
To evaluate the antiviral potential of the molecules under study, an MTT (3-(4,5-dimethylthiazol-2-yl)-2,5-diphenyltetrazolium bromide) reduction assay was employed. Vero cells were seeded in 96-well plates (10^4 cells/well) and cultured until reaching approximately 80% confluence. […] For compounds with undetermined CC50 values, a concentration of 500 μM (the highest concentration tested in the previous study) was used. After incubation, the viral suspension was removed, DMEM medium was added, and cells were incubated for 48 h at 37 °C under a 5% CO2 atmosphere. Cell viability was determined by absorbance reading at 540 nm after solubilization of formazan crystals with DMSO, with the positive control (Vero cells infected with MAYV) defined as 0% cell viability and the negative control (uninfected Vero cells) defined as 100% cell viability. The compound providing the greatest cellular protection was selected for subsequent assays.

Mayaro virus (MAYV) [2] = assay: Virucidal assay (plaque reduction); type: cell-based, Mayaro virus (ATCC VR 66, strain TR 4675); settings: Vero cells
Method: To determine the action of the molecule on viral particles, Vero cells cultured in 24-well plates (10^5 cells/well) at 80% confluence were infected with MAYV (100 PFU/well) previously incubated for 1 h with different concentrations of the compound at 37 °C (100 μL/well). Plates were maintained under agitation for 1 h, and afterward, the viral suspension was replaced with 1 mL of semisolid medium (DMEM + 1% carboxymethylcellulose). Plates were incubated for 48 h at 37 °C and 5% CO2 and subsequently fixed with 10% formaldehyde followed by staining with 5% crystal violet solution for plaque counting. DMEM was used as the negative control, and 100 PFU of untreated MAYV was used as the positive control.

Mayaro virus (MAYV) [3] = assay: Pretreatment assay (plaque reduction); type: cell-based, Mayaro virus (ATCC VR 66, strain TR 4675); settings: Vero cells pretreated 3 h with different concentrations, then infected
Method: To determine whether the compound exerts a protective effect on cells prior to viral infection, Vero cells cultured in 24-well plates (10^5 cells/well) were treated for 3 h at 37 °C with 100 μL of the compound at different concentrations, with periodic agitation. Subsequently, the medium was replaced with 100 μL of a solution containing MAYV (100 PFU), and the plates were incubated under constant agitation for 1 h. The viral suspension was then replaced with a semisolid medium (DMEM + 1% carboxymethylcellulose), and the plates were incubated for 48 h at 37 °C under a 5% CO2 atmosphere. Cells were fixed with 10% formaldehyde and stained with 5% crystal violet solution for plaque counting. DMEM was used as the negative control, and 100 PFU of MAYV was used as the positive control (untreated).

Mayaro virus (MAYV) [4] = assay: Adsorption inhibition assay (plaque reduction); type: cell-based, Mayaro virus (ATCC VR 66, strain TR 4675); settings: 4 °C for 2 h, Vero cells, read-out: Decrease in the number of lysis plaques (adsorption inhibition)
Method: To assess whether the compound interferes with the viral adsorption step, 24-well plates (10^5 cells/well) were cooled at 4 °C for 30 min. The culture medium was removed, and cells were washed with cold PBS, followed by the addition of 100 μL of a solution containing MAYV (100 PFU) and different concentrations of the compound. Cells were incubated at 4 °C for 2 h and subsequently washed with cold citrate buffer (0.1 M citric acid and 0.1 M sodium citrate) and PBS. Semisolid medium (DMEM + 1% carboxymethylcellulose) was then added, and plates were incubated at 37 °C for 48 h. Cells were fixed and stained for plaque counting as previously described. DMEM was used as the negative control, and 100 PFU of MAYV served as the positive control (untreated).

Mayaro virus (MAYV) [5] = assay: Post-treatment assay (plaque reduction); type: cell-based, Mayaro virus (ATCC VR 66, strain TR 4675); settings: Vero cells treated after MAYV infection, any tested concentration
Method: To determine whether the compound acts after viral infection, Vero cells cultured in 24-well plates (10^5 cells/well) were initially infected with 100 μL of MAYV (100 PFU) and incubated under constant agitation for 1 h. The viral suspension was removed and replaced with 100 μL of the compound at different concentrations, followed by incubation for 3 h at 37 °C with periodic agitation. Subsequently, the medium was replaced with semisolid medium (DMEM + 1% carboxymethylcellulose). After 48 h of incubation at 37 °C and 5% CO2, the cells were fixed with 10% formaldehyde and stained with 5% crystal violet for plaque counting. For the negative control, DMEM was used, and for the positive control, 100 PFU of MAYV (untreated).

Mayaro virus (MAYV) [6] = assay: Internalization inhibition assay (plaque reduction); type: cell-based, Mayaro virus (ATCC VR 66, strain TR 4675); settings: concentrations between 500 μM and 62.5 μM; Vero cells
Method: To evaluate whether the compound affects the internalization step, 24-well plates (10^5 cells/well) were cooled at 4 °C for 30 min. The culture medium was removed, and cells were incubated with MAYV (100 PFU/well) at 4 °C for 2 h. Cells were washed with cold PBS, and 1 mL of DMEM was added followed by incubation for 5 min at 37 °C. Subsequently, different concentrations of the compound were added and incubated for 1 h at 37 °C. Cells were then washed with cold PBS and citrate buffer. Finally, semisolid medium (DMEM + 1% carboxymethylcellulose) was added, and plates were incubated at 37 °C for 48 h. Cells were fixed and stained for plaque counting. DMEM was used as the negative control, and 100 PFU of MAYV was used as the positive control (untreated).

MAYV = test system: MAYV; parameters: method as in Langedries et al.; settings: Vero cells; ref Langedries et al.; cited from earlier work

| Compound | CC50 (Vero cells) | Antiviral screening (cell viability %) (Mayaro virus (MAYV) [1]) | further results |
| --- | --- | --- | --- |
| Cc1ccc(C(C)C)cc1OCC(=O)Nc1ccccc1Cl [Compound 1] | 200 µM | 62.5% | – |
| Cc1ccc(C(C)C)cc1OCC(=O)Nc1ccc(Cl)cc1 [Compound 3] | 449 µM | 0% | – |
| Cc1ccc(C(C)C)cc1OCC(=O)Nc1ccccc1Br [Compound 4] | 372 µM | 0% | – |
| Cc1ccc(C(C)C)cc1OCC(=O)Nc1cccc(Br)c1 [Compound 5] | > 500 µM | 50.0% | – |
| Cc1ccc(C(C)C)cc1OCC(=O)Nc1ccc(Br)cc1 [Compound 6] | 182 µM | 0% | – |
| Cc1ccc(C(C)C)cc1OCC(=O)Nc1ccccc1F [Compound 7] | > 500 µM | 22.83% | – |
| Cc1ccc(C(C)C)cc1OCC(=O)Nc1ccc(F)cc1 [Compound 9] | > 500 µM | – | Reduction in the number of lysis plaques (virucidal activity) (Mayaro virus (MAYV) [2]; 500 μM, MAYV pre-incubated 1 h with compound): approximately 40%; Virucidal activity (number of lysis plaques) (Mayaro virus (MAYV) [2]; concentrations ranging from 500 μM to 31.25 μM): significant reduction in the number of lysis plaques; Number of lysis plaques, pretreatment of cells (Mayaro virus (MAYV) [3]): No reduction in the number of lysis plaques; inhibition at 500 µM (Mayaro virus (MAYV) [4]): ~58%; Viral activity, post-treatment (Mayaro virus (MAYV) [5]): no reduction in viral activity; Reduction in the number of lysis plaques (internalization inhibition) (Mayaro virus (MAYV) [6]): about 50% |
| Cc1ccc(C(C)C)cc1OCC(=O)Nc1ccccc1 [Compound 10] | > 500 µM | 0% | – |
| NC(=O)c1ncn([C@@H]2O[C@H](CO)[C@@H](O)[C@H]2O)n1 [ribavirin] | – | – | Antiviral activity against MAYV (MAYV): no antiviral activity |
